Measured values from US10940188B2, “Compounds and methods for treatment and prevention of Flavivirus infection” (priority 2016, dated 2021).

System: ZIKV production from SNB-19 cells
Assay: Infectious ZIKV production from SNB-19 cells, focus-forming unit assay on Vero cells
Format: cell-based, Zika virus
Experimental: FIGS. 2A-1, 2A-2, 2B-1, 2B-2, 2C-1, 2C-2, 2D-1, 2D-2, 2D-3, 2E-1, 2E-2, and 2F. […] Screening of select compounds for antiviral activity against ZIKV infection was carried out. Glioblastoma SNB-19 cells were treated with indicated compound at 10×AC50 (determined in the primary caspase screen) for 1 hour prior to inoculation with FSS-13025 (at MOI=1). Cells were harvested 24 hours post infection and analyzed by Western blot for ZIKV-NS1 or GAPDH (FIGS. 2A-1 and 2A-2). Titration of PHA-690509 on glioblastoma cells for anti-ZIKV activity. Three strains of virus (FSS-13025, PRVABC59, and MR766; MOI=1) were tested. Shown are sample western blot images (FIG. 2B-1) and ImageJ quantification (FIG. 2B-2). Values represent mean±s.d. (n=3; ***P<0.001; One-way ANOVA). Titration of Emricasan on SNB-19 cells for anti-ZIKV activity was conducted similarly (FIGS. 2C-1 and 2C-2). Values represent mean±s.d. […] Sample western blot (FIG. 2D-2) and ImageJ quantification (FIG. 2D-3) are shown for infection with the PRVABC59 strain (MOI=1). Results for additional strains are shown in FIGS. 6A-F. Values represent mean±s.d. […] The concentration of NS1 in the medium of infected SNB-19 cells collected 24 hours post-infection was quantified by a ZIKV-NS1 ELISA kit (FIGS. 2E-1 and 2E-2). […] Cell culture supernatant was collected 24 hours after infection, and infectious virions were quantified for focus-forming units (FFU) using Vero cells. […] Curves represent best fits for calculating IC50 values, and the insets report the calculated IC50 value for each compound.
FIGS. 18A, 18B, 18C-1, 18C-2, 18D, 18E, 18F, 18G-1, and 18G-2. […] 24 hours post infection, supernatants from SNB-19 cells were titrated onto naïve vero cells plated in a monolayer in 96-well plates for infectious focus-forming unit assay as previously described and focus forming units quantified. […] Immunofluorescence (IF) staining (FIG. 18C-1) and quantification (FIG. 18C-2) of ZIKV positive SNB-19 cells following infection with one of three ZIKV strains and treatment with emetine at 0.01, 0.1, or 1 μM. […]
FIG. 21. […] IC50's calculated using graphpad PRISM software. […]

| Structure (SMILES) | potency on inhibition of ZIKV replication | IC50 (Zika virus, SNB-19 cells, each of three ZIKV strains, read-out: IC50 of infectious ZIKV production) [nM] |
| --- | --- | --- |
| O=C(Nc1ccc([N+](=O)[O-])cc1Cl)c1cc(Cl)ccc1O [Niclosamide] | submicromolar range | – |
| CC[C@H]1CN2CCc3cc(OC)c(OC)cc3[C@@H]2C[C@@H]1C[C@H]1NCCc2cc(OC)c(OC)cc21 [Emetine] | – | ≤ 10 |
